Data reported in US12129257B1, “Imidazo[1,2-a]pyrazine compounds as CK2 inhibitors” (KING FAISAL UNIVERSITY, priority 2023, dated 2024).
pIC50: −log10 of the molar value.

What was measured:
A375 (melanoma) = test: In vitro cytotoxic activity (MTT) assay, A375; assay type: cell-based; details: Homo sapiens, A-375; A375 (melanoma) cells, exposed for 96 hours; read-out: IC50, 50% inhibition of cell proliferation
Method: (§1) Compounds 1a-12a and 1b-12b were screened for their in vitro cytotoxic activity utilizing a 3-(4,5-dimethyl-thiazol-2-yl)-2,5-diphenyltetrazolium bromide (MTT) assay against selected cancer human cell lines consisting of PC3 (prostate), HCT116 (colon), A375 (melanoma), H1299 (lung), MIAPaCa-2 (pancreas), HL60 (leukemia), MCF7 (breast), MDA-MB-231 (breast) (T. Mosmann, J. Immunol. Meth., 1983, 65, 55-63). The cells were cultured at 37° C. in RMPI1640 medium supplemented with 10% fetal bovine serum, 50 IU/mL penicillin, and 50 μg/mL streptomycin in a 5% CO2 incubator. All cells were sub-cultured 3 times/week by trypsinisation. Viable cells were seeded and allowed to adhere for 12 h before a test drug was added in 96-well plates at an initial density of 1.0×10^5 cells/mL. Tumor cell lines were separately exposed to various concentrations of the tested compounds followed by incubation at a temperature of 37° C. during 96 hours inside a medium of fresh RMPI1640. Cells were subsequently incubated at 37° C. using MTT at 0.5 mg/mL during 4 hours. After removal of supernatant, formazan crystals were dissolved in isopropanol and the optical density was measured at 570 nm. CX-4945 was used as a positive control.

HCT116 (colon) = test: In vitro cytotoxic activity (MTT) assay, HCT116; assay type: cell-based; details: Homo sapiens, HCT-116; HCT116 (colon) cells, exposed for 96 hours; read-out: IC50, 50% inhibition of cell proliferation
Method: as §1

[1] = target: T1, recombinant human CK2 (RRBB-holoenzyme) (Homo sapiens, UniProt P68400); test: CK2 Kinase Assay (33P-ATP, filter plate); assay type: biochemical; details: recombinant human CK2, final ATP concentration 15 μM, 10 min at 30° C.; read-out: protein kinase CK2 activity IC50
T1 construct: purchased Millipore
T1 sequence (P68400 whole entry): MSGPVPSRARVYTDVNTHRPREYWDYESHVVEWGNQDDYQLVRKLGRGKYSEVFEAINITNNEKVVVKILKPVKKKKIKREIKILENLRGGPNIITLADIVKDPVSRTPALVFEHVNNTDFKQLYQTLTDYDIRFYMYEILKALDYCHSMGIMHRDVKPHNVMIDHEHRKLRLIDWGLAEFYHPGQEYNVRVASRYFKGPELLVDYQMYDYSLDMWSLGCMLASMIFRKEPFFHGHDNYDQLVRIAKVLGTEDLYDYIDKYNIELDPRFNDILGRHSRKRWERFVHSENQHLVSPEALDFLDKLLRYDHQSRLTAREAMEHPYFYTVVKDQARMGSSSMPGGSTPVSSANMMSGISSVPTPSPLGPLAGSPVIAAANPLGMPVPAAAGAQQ
T1 sequence (P67870 whole entry partner): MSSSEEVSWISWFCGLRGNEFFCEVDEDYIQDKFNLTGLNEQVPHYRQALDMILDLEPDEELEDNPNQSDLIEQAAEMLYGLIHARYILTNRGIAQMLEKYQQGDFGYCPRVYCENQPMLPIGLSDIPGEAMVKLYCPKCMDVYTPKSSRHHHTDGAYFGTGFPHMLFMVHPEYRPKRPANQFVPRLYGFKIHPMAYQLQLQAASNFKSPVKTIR
Method: CK2 Kinase Assay was conducted using the protocol as described in Pierre F. et al; J. Med. Chem. 2011, 54, 635-654. The tested compounds in aqueous solution were added at a volume of 10 μL to a reaction mixture comprising 10 μL of assay dilution buffer (ADB; 20 mM MOPS, pH 7.2, 25 mM β-glycerol phosphate, 5 mM EGTA, 1 mM sodium orthovanadate, and 1 mM dithiothreitol), 10 μL of substrate peptide (RRRDDDSDDD, dissolved in ADB at a concentration of 1 mM), 10 μL of recombinant human CK2 (RRBB-holoenzyme, 25 ng dissolved in ADB; Millipore). Reactions were initiated by the addition of 10 μL of ATP solution (90%75 mMMgCl2, 75 μM ATP (final ATP concentration: 15 μM) dissolved in ADB; 10% [γ-33P] ATP (stock 1mCi/100 μL; 3000 Ci/mmol (Perkin-Elmer) and maintained for 10 min at 30° C. The reactions were quenched with 100 μL of 0.75% phosphoric acid and then transferred to and filtered through a phosphor cellulose filter plate (Millipore). After washing each well five times with 0.75% phosphoric acid, the plate was dried under vacuum for 5 min and, following the addition of 15 μL of scintillation fluid to each well, the residual radioactivity was measured using a Wallac luminescence counter. The IC50 values were derived from eight concentrations of test inhibitors.

PC3 (prostate) = test: In vitro cytotoxic activity (MTT) assay, PC3; assay type: cell-based; details: Homo sapiens, Prostate cell; PC3 (prostate) cells, exposed for 96 hours; read-out: IC50, 50% inhibition of cell proliferation
Method: as §1

MCF7 (breast) = test: In vitro cytotoxic activity (MTT) assay, MCF7; assay type: cell-based; details: Homo sapiens; MCF7 (breast) cells, exposed for 96 hours; read-out: IC50, 50% inhibition of cell proliferation
Method: as §1

MDA-MB-231 (breast) = test: In vitro cytotoxic activity (MTT) assay, MDA-MB-231; assay type: cell-based; details: Homo sapiens; MDA-MB-231 (breast) cells, exposed for 96 hours; read-out: IC50, 50% inhibition of cell proliferation
Method: as §1

H1299 (lung) = test: In vitro cytotoxic activity (MTT) assay, H1299; assay type: cell-based; details: Homo sapiens, NCI-H1299; H1299 (lung) cells, exposed for 96 hours; read-out: IC50, 50% inhibition of cell proliferation
Method: as §1

MIAPaCa-2 (pancreas) = test: In vitro cytotoxic activity (MTT) assay, MIAPaCa-2; assay type: cell-based; details: Homo sapiens, MIA PaCa-2; MIAPaCa-2 (pancreas) cells, exposed for 96 hours; read-out: IC50, 50% inhibition of cell proliferation
Method: as §1

HL60 (leukemia) = test: In vitro cytotoxic activity (MTT) assay, HL60; assay type: cell-based; details: Homo sapiens, HL-60; HL60 (leukemia) cells, exposed for 96 hours; read-out: IC50, 50% inhibition of cell proliferation
Method: as §1

Compound | pIC50 (A375 (melanoma)) | pIC50 (HCT116 (colon)) | pIC50 [1] | pIC50 (PC3 (prostate)) | pIC50 (MCF7 (breast)) | pIC50 (MDA-MB-231 (breast)) | pIC50 (H1299 (lung)) | pIC50 (MIAPaCa-2 (pancreas)) | pIC50 (HL60 (leukemia))
FC(F)(F)c1cccc(Nc2c(-c3ccncn3)nc3cnccn23)c1 [Compound 2b, 2-(pyrimidin-4-yl)-N-(3-(trifluoromethyl)phenyl)imidazo[1,2-a]pyrazin-3-amine] | 5.46 | 5.82 | 7.01 | 5.85 | 5.30 | 5.38 | 5.92 | 5.80 | 5.35
FC(F)(F)c1cccc(Nc2c(-c3ccncc3)nc3cnccn23)c1 [Compound 3a, 2-(pyridin-4-yl)-N-(3-(trifluoromethyl)phenyl)imidazo[1,2-a]pyrazin-3-amine] | 5.47 | 5.77 | 6.94 | 5.92 | 5.29 | 5.34 | 5.82 | 5.89 | 5.36
O=C(O)c1ccc2c(c1)nc(Nc1cccc(Cl)c1)c1ccncc12 [CX-4945, Silmitasertib, reference compound] | 5.39 | 5.64 | – | 5.70 | 5.04 | 5.21 | 5.64 | 6.00 | 5.43
